Converted amounts (≈) assume the structure as drawn.

For experiment [1], the system named is S. vitulinus. The experiment is described as follows: Oxford cup assay, zone of inhibition. The experiment is classed as cell-based, Staphylococcus vitulinus. Particulars: Mammaliicoccus vitulinus. As for the experimental part:
(§1) The Oxford cup assays were carried out to evaluate the antibacterial activities against the above-mentioned six bacterial strains. The zones of inhibition for two concentrations (320 and 160 μg/mL) of the synthetic compounds and tiamulin fumarate were measured. The results of Oxford cup assay correspond with that obtained by agar dilution method (MICs) as a whole.
(§2) The procedure for Oxford cup assays was the same as that previously reported. Briefly, inoculums were prepared in 0.9% saline using McFarland standard and spread uniformly on nutrient agar plates. The 320 and 160 µg/mL of all the tested compounds were added individually into the Oxford cups that were placed at equal distances above the agar surfaces. The zone of inhibition for each concentration was measured after a 24–36 h incubation at 37 °C. The same procedure was repeated in triplicate.

The subject of experiment [2] is Escherichia coli (E. coli). Nature of the experiment: MIC testing, agar dilution method. The experiment is classed as cell-based. The conditions noted are these: 36.5 °C, 24–48 h. An excerpt:
(§3) The synthesized pleuromutilin derivatives 3 and 4a–l, with tiamulin fumarate used a as reference drug, were screened for their in vitro antibacterial activity against Escherichia coli (E. coli), Staphylococcus aureus (S. aureus), Methicillin-resistant Staphylococcus aureus (MRSA), Staphylococcus vitulinus (S. vitulinus), Staphylococcus warneri (S. warneri), and Staphylococcus haemolyticus (S. haemolyticus). The antibacterial activities are reported in Table 1 as the minimum inhibitory concentration (MIC) using the agar dilution method. The MICs of the 13 new pleuromutilin derivatives in vitro against E. coli ranged from 10 to 80 μg/mL; against S. aureus, MRSA, S. vitulinus, S. warneri, and S. haemolyticus ranged from 0.156 to 40 μg/mL, respectively.
(§4) The MIC for the synthesized compounds (3 and 4a–l) and tiamulin fumarate used as a reference drug were determined using the agar dilution method according to the National Committee for Clinical Laboratory Standards (NCCLS). Tested compounds were dissolved in 25%–40% DMSO to a solution with a concentration of 1280 µg/mL, whereas tiamulin fumarate was directly dissolved in 10 mL of distilled water at the same concentration as the tested compounds. All the solutions were then diluted twofold with sterile water to provide 11 dilutions (final concentration is 0.625 µg/mL). A 2 mL volume of the 2-fold serial dilution of each test compound/drug was incorporated into 18 mL of hot Muellere-Hinton agar medium. Inoculums, including five Gram (+), S. aureus, MRSA, S. vitulinus, S. warneri, S. haemolyticus, and one Gram (−), E. coli were prepared from blood slants and adjusted to approximately 10^5–10^6 CFU/mL with sterile saline (0.90% NaCl). A 10 µL amount of bacterial suspension was spotted onto Muellere-Hinton agar plates containing serial dilutions of the compounds/drug. The plates were incubated at 36.5 °C for 24–48 h. The same procedure was repeated in triplicate.

In experiment [3] the test system is Staphylococcus warneri (S. warneri). The experiment is described as follows: MIC testing, agar dilution method. The experiment is classed as cell-based. Particulars: 36.5 °C, 24–48 h.
Description: as §3, §4
A general note: In agar dilution, organisms are placed on agar that contains the substance at set levels.

Experiment [4] relates to Methicillin-resistant Staphylococcus aureus (MRSA). Nature of the experiment: MIC testing, agar dilution method. The experiment is classed as cell-based. The conditions noted are these: 36.5 °C, 24–48 h.
Description: as §3, §4

For experiment [5], the system named is Staphylococcus aureus (S. aureus). The experiment is described as follows: MIC testing, agar dilution method. The conditions noted are these: 36.5 °C, 24–48 h. The experiment is classed as cell-based.
Description: as §3, §4

Experiment [6] relates to Staphylococcus haemolyticus (S. haemolyticus). The experiment is described as follows: MIC testing, agar dilution method. The experiment is classed as cell-based. Particulars: 36.5 °C, 24–48 h.
Description: as §3, §4

Experiment [7] has as its system Staphylococcus vitulinus (S. vitulinus). The experiment is described as follows: MIC testing, agar dilution method. The experiment is classed as cell-based. The conditions noted are these: Mammaliicoccus vitulinus, 36.5 °C, 24–48 h.
Description: as §3, §4

In experiment [8] the test system is S. haemolyticus. The experiment is described as follows: Oxford cup assay, zone of inhibition. The conditions noted are these: Staphylococcus haemolyticus. The experiment is classed as cell-based. The method, then:
as §1, §2

For experiment [9], the system named is MRSA. Nature of the experiment: Oxford cup assay, zone of inhibition. The experiment is classed as cell-based. The conditions noted are these: Staphylococcus aureus. As for the experimental part: as §1, §2
In experiment [10] the test system is S. aureus. The experiment is described as follows: Oxford cup assay, zone of inhibition. Particulars: Staphylococcus aureus. The experiment is classed as cell-based. As for the experimental part:
as §1, §2

Experiment [11] has as its system S. warneri. The experiment is described as follows: Oxford cup assay, zone of inhibition. Particulars: Staphylococcus warneri. The experiment is classed as cell-based. As for the experimental part:
as §1, §2

In experiment [12] the test system is E. coli. Nature of the experiment: Oxford cup assay, zone of inhibition. The experiment is classed as cell-based. The conditions noted are these: Escherichia coli. The method, then: as §1, §2

Consider `C=C[C@]1(C)C[C@@H](OC(=O)CSc2nc3ccc(NC(=O)c4ccccc4OC)cc3[nH]2)[C@]2(C)[C@H](C)CC[C@]3(CCC(=O)[C@H]32)[C@@H](C)[C@@H]1O` [Compound 4g, 14-O-((2-Methoxybenzamide-5-aminobenzimidazole-2-yl)thioacetyl) mutilin], for which the zone of inhibition at 160 µg/mL in experiment [1] was determined as 16.2 mm; in experiment [8], 24.3 mm; in experiment [9], 19.1 mm; in experiment [10], 13.7 mm; in experiment [11] it was 18.5 mm; in experiment [12], 0 mm. Further, the zone of inhibition at 320 µg/mL amounted to 18 mm in experiment [1]; 25.6 mm in experiment [8]; 21.5 mm in experiment [9]; 18.3 mm in experiment [10]; 20.1 mm in experiment [11]; 9.38 mm in experiment [12]. Further, the MIC in experiment [2] is 80 µg/mL (≈ 121 µM); in experiment [3], 40 µg/mL (≈ 60.6 µM); in [4], 40 µg/mL (≈ 60.6 µM); in [5] it was 40 µg/mL (≈ 60.6 µM); in experiment [6], 10 µg/mL (≈ 15.2 µM); in experiment [7] it was 40 µg/mL (≈ 60.6 µM).

`C=C[C@]1(C)C[C@@H](OC(=O)CSc2nc3ccc(NC(=O)c4cccc(OC)c4)cc3[nH]2)[C@]2(C)[C@H](C)CC[C@]3(CCC(=O)[C@H]32)[C@@H](C)[C@@H]1O` [Compound 4h, 14-O-((3-Methoxybenzamide-5-aminobenzimidazole-2-yl)thioacetyl) mutilin]: the zone of inhibition at 160 µg/mL in experiment [1] was found to be 19.8 mm; in experiment [8], 25.4 mm; in experiment [9], 16.3 mm; in experiment [10], 15.9 mm; in [11], 17.9 mm; in experiment [12], 15.3 mm. Besides, the zone of inhibition at 320 µg/mL in experiment [1] was 21.7 mm; in experiment [8] it was 28.4 mm; in [9] it was 19.7 mm; in [10] it was 18.7 mm; in experiment [11] it was 19.8 mm; in experiment [12] it was 18 mm. Besides, the minimum inhibitory concentration (MIC) in [2] came to 40 µg/mL (≈ 60.6 µM); in experiment [3], 40 µg/mL (≈ 60.6 µM); in experiment [4], 40 µg/mL (≈ 60.6 µM); in experiment [5], 40 µg/mL (≈ 60.6 µM); in experiment [6], 10 µg/mL (≈ 15.2 µM); in [7] it was 40 µg/mL (≈ 60.6 µM).

Take `C=C[C@]1(C)C[C@@H](OC(=O)CSc2nc3ccc(NC(=O)c4ccc(OC)cc4)cc3[nH]2)[C@]2(C)[C@H](C)CC[C@]3(CCC(=O)[C@H]32)[C@@H](C)[C@@H]1O` [Compound 4i, 14-O-((4-Methoxybenzamide-5-aminobenzimidazole-2-yl)thioacetyl) mutilin]: the zone of inhibition at 160 µg/mL in [1] is 17.6 mm; in [8] it was 23 mm; in experiment [9], 21.3 mm; in experiment [10] it was 18.6 mm; in [11], 18.6 mm; in [12], 14.2 mm. The zone of inhibition at 320 µg/mL in [1] came to 18.2 mm; in [8], 32.9 mm; in experiment [9], 25.7 mm; in experiment [10], 21.5 mm; in [11] it was 21.8 mm; in experiment [12], 17.7 mm. Besides, the MIC in experiment [2] was 40 µg/mL (≈ 60.6 µM); in experiment [3], 20 µg/mL (≈ 30.3 µM); in experiment [4] it was 20 µg/mL (≈ 30.3 µM); in experiment [5], 40 µg/mL (≈ 60.6 µM); in experiment [6], 5 µg/mL (≈ 7.58 µM); in experiment [7] it was 40 µg/mL (≈ 60.6 µM).

`C=C[C@]1(C)C[C@@H](OC(=O)CSc2nc3ccc(NC(=O)C4CCCCC4)cc3[nH]2)[C@]2(C)[C@H](C)CC[C@]3(CCC(=O)[C@H]32)[C@@H](C)[C@@H]1O` [Compound 4j, 14-O-((Cyclohexanecarboxamide-5-aminobenzimidazole-2-yl)thioacetyl) mutilin]: the zone of inhibition at 160 µg/mL in [1] came out at 26 mm; in experiment [8], 23 mm; in experiment [9], 28 mm; in experiment [10] it was 15.4 mm; in experiment [11], 24.7 mm; in experiment [12] it was 17.4 mm. Besides, the zone of inhibition at 320 µg/mL in [1] stood at 29.1 mm; in experiment [8] it was 26.4 mm; in experiment [9], 31.9 mm; in experiment [10], 27.2 mm; in [11], 27.7 mm; in experiment [12], 19.8 mm. For the same molecule, the MIC stood at 20 µg/mL (≈ 31.5 µM) in [2]; 2.5 µg/mL (≈ 3.93 µM) in experiment [3]; 1.25 µg/mL (≈ 1.97 µM) in experiment [4]; 5 µg/mL (≈ 7.86 µM) in [5]; 10 µg/mL (≈ 15.7 µM) in [6]; 1.25 µg/mL (≈ 1.97 µM) in experiment [7].

For the molecule `C=C[C@]1(C)C[C@@H](OC(=O)CSc2nc3ccc(NC(=O)c4ccc[nH]4)cc3[nH]2)[C@]2(C)[C@H](C)CC[C@]3(CCC(=O)[C@H]32)[C@@H](C)[C@@H]1O` [Compound 4k, 14-O-(((1H-Pyrrole-2-carboxamide)-5-aminobenzimidazole-2-yl)thioacetyl) mutilin], the zone of inhibition at 160 µg/mL was 24.7 mm in experiment [1]; 25.5 mm in experiment [8]; 26.5 mm in [9]; 26.6 mm in experiment [10]; 21.2 mm in [11]; 18.5 mm in experiment [12]. The zone of inhibition at 320 µg/mL in [1] is 27 mm; in experiment [8], 29.9 mm; in experiment [9] it was 30.7 mm; in experiment [10] it was 28.9 mm; in experiment [11], 25.5 mm; in experiment [12], 20.1 mm. Also, the MIC in experiment [2] is 20 µg/mL (≈ 32.3 µM); in experiment [3], 5 µg/mL (≈ 8.08 µM); in experiment [4], 1.25 µg/mL (≈ 2.02 µM); in experiment [5], 1.25 µg/mL (≈ 2.02 µM); in experiment [6] it was 1.25 µg/mL (≈ 2.02 µM); in experiment [7], 1.25 µg/mL (≈ 2.02 µM).

For `C=C[C@]1(C)C[C@@H](OC(=O)CSc2nc3ccc(NC(=O)c4cc5ccccc5[nH]4)cc3[nH]2)[C@]2(C)[C@H](C)CC[C@]3(CCC(=O)[C@H]32)[C@@H](C)[C@@H]1O` [Compound 4l, 14-O-(((1H-Indole-2-carboxamide)-5-aminobenzimidazole-2-yl)thioacetyl) mutilin], the zone of inhibition at 160 µg/mL came to 22.1 mm in experiment [1]; 20.8 mm in experiment [8]; 19.8 mm in experiment [9]; 20.9 mm in experiment [10]; 25.4 mm in experiment [11]; 17.4 mm in experiment [12]. In addition, the zone of inhibition at 320 µg/mL was found to be 26.5 mm in [1]; 25.1 mm in experiment [8]; 21.6 mm in experiment [9]; 24.7 mm in experiment [10]; 29.6 mm in experiment [11]; 20.5 mm in [12]. Besides, the MIC in experiment [2] was found to be 20 µg/mL (≈ 29.9 µM); in experiment [3], 2.5 µg/mL (≈ 3.74 µM); in experiment [4], 10 µg/mL (≈ 15 µM); in [5], 10 µg/mL (≈ 15 µM); in experiment [6] it was 10 µg/mL (≈ 15 µM); in [7] it was 5 µg/mL (≈ 7.48 µM).

A word on the zone of inhibition: it is the extent of the growth-free halo in a diffusion test. Low values mean little suppression of growth, high ones wide suppression of growth. Broadly, the MIC is the lowest concentration that inhibits growth of the organism.

These data come from paper PMC6273978, “Synthesis and Pharmacological Evaluation of Novel Pleuromutilin Derivatives with Substituted Benzimidazole Moieties” (Molecules, 2016).
